molecular target: SARS2 protease (Severe acute respiratory syndrome coronavirus 2, UniProt P0DTD1); assay: SARS-CoV-2 protease inhibition assay (SARS2 FRET protease assay); assay type: biochemical; settings: SARS-CoV-2 protease 25 nM, FRET, peptide substrate 1.3 μM, 30 minutes at 30° C., compounds 20 μM to 1.0 nM; read-out: IC50

First: CC1(C)CC(CC(NC(=O)[C@H](CC2CCCCC2)NC(=O)OC(c2cccc(Cl)c2)C(C)(C)c2cccc(Cl)c2)C(=O)C(N)=O)C(=O)N1 (stereo partly drawn) [Compound C288]
Second: CCCCC[C@H](NC(=O)OC(c1ccccc1)C(C)(C)c1cccc(Cl)c1)C(=O)N[C@@H](C[C@@H]1CCNC1=O)C(=O)C(=O)NC1CC1 (stereo partly drawn) [Compound C289]
The IC50 of the first is 6-fold higher: 2230 nM for the first, 370 nM for the second. The second is the more potent here.

Work on `O=C(N[C@@H](CC1CCCCC1)C(=O)NC(CC1CC2(CCC2)NC1=O)C(=O)C(=O)NC1CC1)OCc1cccc(Cl)c1` (stereo partly drawn) [Compound C290, 3-Chlorobenzyl ((2S)-3-cyclohexyl-1-((4-(cyclopropylamino)-3,4-dioxo-1-(6-oxo-5-azaspiro[3.4]octan-7-yl)butan-2-yl)amino)-1-oxopropan-2-yl)carbamate] yielded an IC50 of 508 nM.

Reference: patent publication US20230159453A1 (COCRYSTAL PHARMA, INC., priority 2020, published 2023)
